# Laboratory results from BindingDB's records for doi:10.7270/Q2DF6PMF (Nmmlsc, 2007).
# Target: T1, N-formyl peptide receptor 2 (Homo sapiens, UniProt P25090)
# T1 sequence (P25090 whole entry): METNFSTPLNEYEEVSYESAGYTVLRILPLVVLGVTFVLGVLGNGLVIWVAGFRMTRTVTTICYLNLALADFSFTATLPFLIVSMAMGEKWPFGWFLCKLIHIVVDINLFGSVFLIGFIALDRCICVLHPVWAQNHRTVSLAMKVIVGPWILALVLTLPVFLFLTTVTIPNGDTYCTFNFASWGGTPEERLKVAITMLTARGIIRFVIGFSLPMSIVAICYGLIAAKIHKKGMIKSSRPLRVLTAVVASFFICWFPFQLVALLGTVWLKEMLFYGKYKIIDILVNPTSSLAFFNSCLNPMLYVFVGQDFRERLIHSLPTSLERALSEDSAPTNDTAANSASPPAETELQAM
# Test: concentration-dependent FPRL1 ligand displacement – cell-based, FPR counter-screen, fluorescent ligand, dose response (AID 520)
IC50,Ki,Structure (SMILES)
> 66.7 µM,> 40.3 µM,"Cc1cc(N2C(=O)C(=O)C(C(=O)c3ccc(F)cc3)C2c2cccc(Br)c2)no1 (stereo not given) [(4E)-5-(3-bromophenyl)-4-[(4-fluorophenyl)-hydroxy-methylene]-1-(5-methylisoxazol-3-yl)pyrrolidine-2,3-quinone]"
> 66.7 µM,> 40.3 µM,"CCOc1ccc(C(=O)C2C(=O)C(=O)N(c3nc(C)c(C)s3)C2c2ccco2)cc1 (stereo not given) [(4Z)-1-(4,5-dimethyl-1,3-thiazol-2-yl)-4-[(4-ethoxyphenyl)-hydroxymethylidene]-5-(furan-2-yl)pyrrolidine-2,3-dione]"
> 66.7 µM,> 40.3 µM,"COc1ccc(C(=O)C2C(=O)C(=O)N(c3nc(C)c(C)s3)C2c2ccco2)cc1 (stereo not given) [(4Z)-1-(4,5-dimethyl-1,3-thiazol-2-yl)-5-(furan-2-yl)-4-[(4-methoxyphenyl)-oxidanyl-methylidene]pyrrolidine-2,3-dione]"
> 66.7 µM,> 40.3 µM,"CCOc1cccc(C(=O)C2C(=O)C(=O)N(CCOC)C2c2ccc(C)o2)c1 (stereo not given) [(4Z)-4-[(3-ethoxyphenyl)-hydroxymethylidene]-1-(2-methoxyethyl)-5-(5-methyl-2-furanyl)pyrrolidine-2,3-dione]"
> 66.7 µM,> 40.3 µM,"CCOc1ccc(C(=O)C2C(=O)C(=O)N(CC3CCCO3)C2c2ccco2)cc1 (stereo not given) [(4Z)-4-[(4-ethoxyphenyl)-hydroxymethylidene]-5-(2-furanyl)-1-(2-oxolanylmethyl)pyrrolidine-2,3-dione]"
> 66.7 µM,> 40.3 µM,"COc1ccccc1C1C(C(=O)c2ccccc2)C(=O)C(=O)N1CC(C)O (stereo not given) [(4Z)-4-[hydroxy(phenyl)methylene]-1-(2-hydroxypropyl)-5-(2-methoxyphenyl)pyrrolidine-2,3-quinone]"
> 66.7 µM,> 40.3 µM,"COc1ccc(C2C(C(=O)c3ccccc3)C(=O)C(=O)N2CC(C)O)c(OC)c1 (stereo not given) [(4Z)-5-(2,4-dimethoxyphenyl)-4-[hydroxy(phenyl)methylene]-1-(2-hydroxypropyl)pyrrolidine-2,3-quinone]"
> 66.7 µM,> 40.3 µM,"COc1ccc(OC)c(C2C(C(=O)c3ccccc3)C(=O)C(=O)N2Cc2ccco2)c1 (stereo not given) [(4Z)-5-(2,5-dimethoxyphenyl)-1-(2-furanylmethyl)-4-[hydroxy(phenyl)methylidene]pyrrolidine-2,3-dione]"
> 66.7 µM,,CCOC(=O)c1c(C)[nH]c(C=Nc2ccccc2)c1O [(5Z)-5-(anilinomethylidene)-2-methyl-4-oxo-1H-pyrrole-3-carboxylic acid ethyl ester]

# The remaining lines, values behind:
Structure (SMILES),IC50,Ki
"CC1Cc2cc(C(=O)C3C(=O)C(=O)N(CCN4CCOCC4)C3c3ccccc3F)ccc2O1 (stereo not given) [(4E)-5-(2-fluorophenyl)-4-[(2-methyl-2,3-dihydro-1-benzofuran-5-yl)-oxidanyl-methylidene]-1-(2-morpholin-4-ylethyl)pyrrolidine-2,3-dione]",> 66.7 µM,> 40.3 µM
"Cc1ccc(C(=O)C2C(=O)C(=O)N(c3cc(C)on3)C2c2cccc(Br)c2)cc1 (stereo not given) [(4E)-5-(3-bromophenyl)-1-(5-methyl-1,2-oxazol-3-yl)-4-[(4-methylphenyl)-oxidanyl-methylidene]pyrrolidine-2,3-dione]",> 66.7 µM,> 40.3 µM
"Cc1ccc(C(=O)C2C(=O)C(=O)N(CC(C)O)C2c2ccc(N(C)C)cc2)cc1 (stereo not given) [(4E)-5-[4-(dimethylamino)phenyl]-1-(2-hydroxypropyl)-4-[hydroxy(p-tolyl)methylene]pyrrolidine-2,3-quinone]",> 66.7 µM,> 40.3 µM
"CCOc1cccc(C(=O)C2C(=O)C(=O)N(Cc3ccco3)C2c2ccncc2)c1 (stereo not given) [(4Z)-1-(2-furfuryl)-4-[hydroxy(m-phenetyl)methylene]-5-(4-pyridyl)pyrrolidine-2,3-quinone]",> 66.7 µM,> 40.3 µM
"COc1ccccc1C1C(C(=O)c2ccccc2)C(=O)C(=O)N1CCO (stereo not given) [(4Z)-1-(2-hydroxyethyl)-4-[hydroxy(phenyl)methylene]-5-(2-methoxyphenyl)pyrrolidine-2,3-quinone]",> 66.7 µM,> 40.3 µM
"CCOc1cccc(C(=O)C2C(=O)C(=O)N(Cc3cccnc3)C2c2ccco2)c1 (stereo not given) [(4Z)-4-[(3-ethoxyphenyl)-hydroxymethylidene]-5-(2-furanyl)-1-(3-pyridinylmethyl)pyrrolidine-2,3-dione]",> 66.7 µM,> 40.3 µM
"Cc1ccc(C2C(C(=O)c3ccc(Br)cc3)C(=O)C(=O)N2Cc2ccco2)o1 (stereo not given) [(4Z)-4-[(4-bromophenyl)-hydroxy-methylene]-1-(2-furfuryl)-5-(5-methyl-2-furyl)pyrrolidine-2,3-quinone]",> 66.7 µM,> 40.3 µM
"Cc1ccc(C2C(C(=O)c3ccc(Cl)cc3)C(=O)C(=O)N2CC2CCCO2)o1 (stereo not given) [(4Z)-4-[(4-chlorophenyl)-hydroxy-methylene]-5-(5-methyl-2-furyl)-1-(tetrahydrofurfuryl)pyrrolidine-2,3-quinone]",> 66.7 µM,> 40.3 µM
"CCOc1ccc(C(=O)C2C(=O)C(=O)N(CC3CCCO3)C2c2ccc(C)o2)cc1 (stereo not given) [(4Z)-4-[(4-ethoxyphenyl)-hydroxymethylidene]-5-(5-methyl-2-furanyl)-1-(2-oxolanylmethyl)pyrrolidine-2,3-dione]",> 66.7 µM,> 40.3 µM
"COc1ccc(C(=O)C2C(=O)C(=O)N(CCN3CCOCC3)C2c2ccc(C)cc2)cc1 (stereo not given) [(4Z)-4-[(4-methoxyphenyl)-oxidanyl-methylidene]-5-(4-methylphenyl)-1-(2-morpholin-4-ylethyl)pyrrolidine-2,3-dione]",> 66.7 µM,> 40.3 µM
"Cc1ccc(C(=O)C2C(=O)C(=O)N(CCN3CCOCC3)C2c2cccnc2)cc1 (stereo not given) [(4Z)-4-[(4-methylphenyl)-oxidanyl-methylidene]-1-(2-morpholin-4-ylethyl)-5-pyridin-3-yl-pyrrolidine-2,3-dione]",> 66.7 µM,> 40.3 µM
"COc1ccccc1C1C(C(=O)c2ccccc2)C(=O)C(=O)N1CC(C)C (stereo not given) [(4Z)-4-[hydroxy(phenyl)methylene]-1-isobutyl-5-(2-methoxyphenyl)pyrrolidine-2,3-quinone]",> 66.7 µM,> 40.3 µM
"Cc1ccc(C2C(C(=O)c3cnn(-c4ccccc4)c3C)C(=O)C(=O)N2CCN2CCOCC2)o1 (stereo not given) [(4Z)-4-[hydroxy-(5-methyl-1-phenyl-4-pyrazolyl)methylidene]-5-(5-methyl-2-furanyl)-1-[2-(4-morpholinyl)ethyl]pyrrolidine-2,3-dione]",> 66.7 µM,> 40.3 µM
"COc1cccc(C(=O)C2C(=O)C(=O)N(Cc3cccnc3)C2c2ccco2)c1 (stereo not given) [(4Z)-5-(2-furanyl)-4-[hydroxy-(3-methoxyphenyl)methylidene]-1-(3-pyridinylmethyl)pyrrolidine-2,3-dione]",> 66.7 µM,> 40.3 µM
CCN1C(=O)/C(=C2\SC(=S)N(CCCOC)C2=O)c2ccccc21 [(5Z)-5-(1-ethyl-2-keto-indolin-3-ylidene)-3-(3-methoxypropyl)-2-thioxo-thiazolidin-4-one],> 66.7 µM,
O=C1Nc2ccccc2/C1=C1/SC(=S)N(CC2CCCO2)C1=O (stereo not given) [(5Z)-5-(2-ketoindolin-3-ylidene)-3-(tetrahydrofurfuryl)-2-thioxo-thiazolidin-4-one],> 66.7 µM,> 40.3 µM
C=C(c1ccc(Br)cc1)c1sc(N2CCCC2)nc1O [(5Z)-5-[1-(4-bromophenyl)ethylidene]-2-(1-pyrrolidinyl)-4-thiazolone],> 66.7 µM,> 40.3 µM
